In patent publication US20100298137A1, “ACTIVE INGREDIENT COMBINATIONS WITH INSECTICIDAL PROPERTIES” (BAYER CROPSCIENCE AG, priority 2006, published 2010):

Columns and labels:
[1] = tested on: Myzus persicae; assay: Myzus persicae test (cabbage leaves dipped into the preparation of active compound); assay type: in vivo; details: leaf dip
Description: (§1) The expected activity for a given combination of two active compounds can be calculated according to S. R. Colby, Weeds 15 (1967), 20-22 as follows:
(§2) If • X is the kill rate, expressed in % of the untreated control, when active compound A is applied at an application rate of m g/ha or at a concentration of m ppm, • Y is the kill rate, expressed in % of the untreated control, when active compound B is applied at an application rate of n g/ha or at a concentration of n ppm and • E is the kill rate, expressed in % of the untreated control, when active compounds A and B is applied at application rates of m and n g/ha or at a concentration of m and n ppm, then
(§3) If the actual kill rate is greater than calculated, the kill of the combination is superadditive, i.e. there is a synergistic effect. In this case, the actual observed kill rate has to be greater than the value for the expected kill rate (E) calculated from the formula given above.
(§4) To produce a suitable preparation of active compound, 1 part by weight of active compound is mixed with the stated amounts of solvent and emulsifier, and the concentrate is diluted with emulsifier-containing water to the desired concentration.
Cabbage leaves (Brassica oleracea) which are heavily infested by the green peach aphid (Myzus persicae) are treated by being dipped into the preparation of active compound of the desired concentration.
(§5) After the desired period of time, the kill in % is determined. 100% means that all aphids have been killed; 0% means that none of the aphids have been killed. The kill rates determined are entered into the Colby formula (see sheet 1).

[2] = tested on: Aphis gossypii; assay: Aphis gossypii test (cotton leaves dipped into the preparation of active compound); assay type: in vivo; details: leaf dip
Description: as §1, §2, §3, §4
Cotton leaves (Gossypium hirsutum) which are heavily infested by the cotton aphid (Aphis gossypii) are treated by being dipped into the preparation of active compound of the desired concentration.
as §5

CC(C)N1C(=O)N(c2ccccc2)CS/C1=N\C(C)(C)C [buprofezin]
Kill in % after 1 d ([1]; 100 ppm): 0% | Kill in % after 1 d ([2]; 100 ppm): 5%

CN(Cc1ccc(Cl)nc1)C1=CC(=O)OC1 [compound (Ia)]
Kill in % after 1 d ([1]; 0.16 ppm): 10% | Kill in % after 6 d ([1]; 0.16 ppm): 0% | Kill in % after 1 d ([1]; 0.8 ppm): 45% | Kill in % after 6 d ([1]; 0.8 ppm): 50% | Kill in % after 1 d ([2]; 0.16 ppm): 20% | Kill in % after 1 d ([2]; 0.8 ppm): 55%

O=C1C=C(N(Cc2ccc(Cl)nc2)C2CC2)CO1 [compound (Ib)]
Kill in % after 6 d ([1]; 0.16 ppm): 0% | Kill in % after 1 d ([1]; 0.8 ppm): 10% | Kill in % after 1 d ([1]; 4 ppm): 70% | Kill in % after 6 d ([1]; 4 ppm): 33% | Kill in % after 6 d ([2]; 0.16 ppm): 0% | Kill in % after 1 d ([2]; 0.8 ppm): 45% | Kill in % after 6 d ([2]; 0.8 ppm): 50% | Kill in % after 1 d ([2]; 4 ppm): 80%

CC[S+]([O-])c1c(C#N)nn(-c2c(Cl)cc(C(F)(F)F)cc2Cl)c1N (centres unmarked) [ethiprole]
Kill in % after 6 d ([2]; 0.8 ppm): 30%

N#Cc1nn(-c2c(Cl)cc(C(F)(F)F)cc2Cl)c(N)c1[S+]([O-])C(F)(F)F (centres unmarked) [fipronil]
Kill in % after 6 d ([1]; 4 ppm): 0% | Kill in % after 6 d ([2]; 20 ppm): 70%

Cc1cc(C(F)(C(F)(F)F)C(F)(F)F)ccc1NC(=O)c1cccc(I)c1C(=O)NC(C)(C)CS(C)(=O)=O [flubendiamid, flubendiamide]
Kill in % after 6 d ([1]; 100 ppm): 6%

COC(=O)N(C(=O)N1COC2(C(=O)OC)Cc3cc(Cl)ccc3C2=N1)c1ccc(OC(F)(F)F)cc1 (centres unmarked) [indoxacarb]
Kill in % after 6 d ([1]; 100 ppm): 20% | Kill in % after 1 d ([2]; 100 ppm): 0%

COc1cccc(C(=O)NN(C(=O)c2cc(C)cc(C)c2)C(C)(C)C)c1C [methoxyfenozide]
Kill in % after 1 d ([1]; 100 ppm): 0% | Kill in % after 1 d ([2]; 100 ppm): 0%

FC(F)(F)c1ccc(OCCCOc2c(Cl)cc(OCC=C(Cl)Cl)cc2Cl)nc1 [pyridalyl]
Kill in % after 6 d ([1]; 100 ppm): 0% | Kill in % after 1 d ([2]; 100 ppm): 5%

CNC(=O)c1cc(Cl)cc(C)c1NC(=O)c1cc(Br)nn1-c1ncccc1Cl [rynaxapyr, 3-bromo-N-{4-chloro-2-methyl-6-[(methylamino)carbonyl]phenyl}-1-(3-chloropyridin-2-yl)-1H-pyrazole-5-carboxamide]
Kill in % after 1 d ([1]; 4 ppm): 30% | Kill in % after 6 d ([2]; 0.8 ppm): 15%

abamectin
Kill in % after 1 d ([1]; 100 ppm): 55%

emamectin benzoate
Kill in % after 1 d ([2]; 20 ppm): 10%

spinosad
Kill in % after 1 d ([1]; 100 ppm): 5% | Kill in % after 6 d ([1]; 100 ppm): 5%
